Counter-ions that a name gives are not always drawn. Like-named read-outs stand apart in the source and are kept apart here.

This test concerns the target T1, SARS-CoV-2 PLpro (Severe acute respiratory syndrome coronavirus 2, UniProt P0DTD1).
T1 construct: containing 60 nM papain-like protease
The test can be described thus: biochemical.

[1] abbreviates: 60 nM papain-like protease, 50 μM Z-RLRGG-AMC, pH 7.5, 37° C., read-out: SARS-CoV-2 PLpro IC50.

As a reminder, the IC50 is the concentration that gives 50% inhibition. Take `C[C@@H](NC(=O)c1cc(-c2ccc(C3CCNCC3)cc2)cn1C)c1cccc2ccccc12` [Example 151, 1-Methyl-N-[(1R)-1-(1-naphthyl)ethyl]-4-[4-(4-piperidyl)phenyl]pyrrole-2-carboxamide]: under setting [1], the half-maximal inhibitory concentration (IC50) was above 100 µM.
Regarding `Cc1ccc(N2CCCN(CCS(C)(=O)=O)CC2)cc1C(=O)N[C@H](C)c1cccc2ccccc12` [Example 177, 2-Methyl-5-[4-(2-methylsulfonylethyl)-1,4-diazepan-1-yl]-N-[(1R)-1-(1-naphthyl)ethyl]benzamide], the IC50 under setting [1] was below 20 µM.
On to `C[C@@H](NC(=O)c1cccc(C2CCN(CCS(C)(=O)=O)CC2)c1)c1cccc2ccccc12` [Example 176, 3-[1-(2-Methylsulfonylethyl)-4-piperidyl]-N-[(1R)-1-(1-naphthyl)ethyl]benzamide], for which the IC50 under setting [1] is below 100 µM.
Still for that read-out and setting: the result for `C[C@@H](NC(=O)c1cccc(C2CCN(CCC(=O)O)CC2)c1)c1cccc2ccccc12` [Example 164, 3-[4-[3-[[(1R)-1-(1-Naphthyl)ethyl]carbamoyl]phenyl]-1-piperidyl]propanoic acid] reads below 100 µM; that for `COc1cc(-c2cn(C)nc2C)cc([C@@H](C)NC(=O)c2cc(C3CCNCC3)ccc2C)c1` [Example 304, N-[(1R)-1-[3-(1,3-Dimethylpyrazol-4-yl)-5-methoxy-phenyl]ethyl]-2-methyl-5-(4-piperidyl)benzamide], below 2 µM.
Consider `CNCCN(C)C(=O)c1cccc([C@@H](C)NC(=O)c2cc(N3CCN(C)CC3)ccc2C)c1` [Example 314, 2-Methyl-N-[(1R)-1-[3-[methyl-[2-(methylamino)ethyl]carbamoyl]phenyl]ethyl]-5-(4-methylpiperazin-1-yl)benzamide Dihydrochloride Salt], for which the concentration for half-maximal inhibition (IC50) under setting [1] is below 20 µM.
On the same count and under the same terms, the result for `Cc1ccc(-c2cn[nH]c2)cc1C(=O)N[C@H](C)c1cccc2ccccc12` [Example 153, 2-Methyl-N-[(1R)-1-(1-naphthyl)ethyl]-5-(1H-pyrazol-4-yl)benzamide] reads below 20 µM.
Turning to `COc1ccc([C@@H](C)NC(=O)c2cc(N3[C@@H]4CC[C@H]3CN(C)C4)ccc2C)cc1OC` [Example 10, N-[(1R)-1-(3,4-Dimethoxyphenyl)ethyl]-2-methyl-5-[(1S,5R)-3-methyl-3,8-diazabicyclo[3.2.1]octan-8-yl]benzamide], the half-maximal inhibitory concentration (IC50) was below 100 µM.
As for `C[C@@H](NC(=O)c1cc(N2CCN(C)CC2)ccn1)c1cccc2ccccc12` [Example 14, 4-(4-Methylpiperazin-1-yl)-N-[(1R)-1-(1-naphthyl)ethyl]pyridine-2-carboxamide], the concentration for half-maximal inhibition (IC50) under setting [1] was above 100 µM.
On the same count and under the same terms, under `Cc1ccc(N2CCN(C)CC2)cc1C(=O)N[C@H](C)c1cncc(Br)c1` [Example 193, N-[(1R)-1-(5-Bromo-3-pyridyl)ethyl]-2-methyl-5-(4-methylpiperazin-1-yl)benzamide] stands below 100 µM; under `Cc1ccc(-c2ccccc2)cc1C(=O)N[C@H](C)c1cccc2ccccc12` [Example 5, 2-Methyl-N-[(1R)-1-(1-naphthyl)ethyl]-5-phenyl-benzamide], above 100 µM; under `C[C@@H](NC(=O)c1cccc(C2CCN(CCS(=O)(=O)c3ccccc3)CC2)c1)c1cccc2ccccc12` [Example 175, 3-[1-[2-(Benzenesulfonyl)ethyl]-4-piperidyl]-N-[(1R)-1-(1-naphthyl)ethyl]benzamide], above 100 µM.
On the same count and under the same terms, under `Cc1ccc(N2CCN(C)CC2)cc1C(=O)N(C)[C@H](C)c1cccc2ccccc12` [Example 35, N,2-Dimethyl-5-(4-methylpiperazin-1-yl)-N-[(1R)-1-(1-naphthyl)ethyl]benzamide] stands below 100 µM; under `Cc1ccc(-c2ccnc(N3CCN(CCC(=O)O)CC3)c2)cc1C(=O)N[C@H](C)c1cccc2ccccc12` [Example 169, 3-[4-[4-[4-Methyl-3-[[(1R)-1-(1-naphthyl)ethyl]carbamoyl]phenyl]-2-pyridyl]piperazin-1-yl]propanoic acid], below 20 µM.
On the same count and under the same terms, the result for `C[C@@H](NC(=O)c1cccc(N2CCCCC2)c1)c1cccc2ccccc12` [Example 1, N-[(1R)-1-(1-naphthyl)ethyl]-3-(1-piperidyl)benzamide] reads above 100 µM; that for `C[C@@H](NC(=O)c1ccnc(N2CC[C@@H](N)C2)n1)c1cccc2ccccc12` [Example 319, 2-[(3R)-3-Aminopyrrolidin-1-yl]-N-[(1R)-1-(1-naphthyl)ethyl]pyrimidine-4-carboxamide Hydrochloride Salt], above 100 µM.
As for `Cc1ccc(N2CCN(C)CC2)cc1C(=O)N[C@H](C)c1cccc(-c2ccncc2)c1` [Example 51, 2-Methyl-5-(4-methylpiperazin-1-yl)-N-[(1R)-1-[3-(4-pyridyl)phenyl]ethyl]benzamide], the half-inhibitory concentration (IC50) under setting [1] is below 2 µM.
Consider `C[C@@H](NC(=O)c1ccnc(N2CCN(CCO)CC2)n1)c1cccc2ccccc12` [Example 317, 2-[4-(2-Hydroxyethyl)piperazin-1-yl]-N-[(1R)-1-(1-naphthyl)ethyl]pyrimidine-4-carboxamide hydrochloride salt], for which, under setting [1], the IC50 was above 100 µM.
Still for that read-out and setting: the result for `C[C@@H](NC(=O)c1cc(N2CCN(CC(F)(F)F)CC2)ccc1Cl)c1cccc2ccccc12` [Example 131, 2-Chloro-N-[(1R)-1-(1-naphthyl)ethyl]-5-[4-(2,2,2-trifluoroethyl)piperazin-1-yl]benzamide] reads above 100 µM.
Still for that read-out and setting: the result for `C[C@@H](NC(=O)c1cc(-c2ccncc2)cn1C)c1cccc2ccccc12` [Example 148, 1-Methyl-N-[(1R)-1-(1-naphthyl)ethyl]-4-(4-pyridyl)pyrrole-2-carboxamide] reads above 100 µM; that for `C[C@@H](NC(=O)c1cccc(-c2ccnc(N3CCOCC3)n2)c1)c1cccc2ccccc12` [Example 138, 3-(2-Morpholinopyrimidin-4-yl)-N-[(1R)-1-(1-naphthyl)ethyl]benzamide], above 100 µM; that for `COc1cc([C@@H](C)NC(=O)c2cc(N3CCN(C)CC3)ccc2C)ccc1O` [Example 305, N-[(1R)-1-(4-Hydroxy-3-methoxy-phenyl)ethyl]-2-methyl-5-(4-methylpiperazin-1-yl)benzamide], below 5 µM.
For `Cc1ccc(N2CCN(C)CC2)cc1C(=O)N[C@H](C)c1cccc(S(C)(=O)=O)c1` [Example 38, 2-Methyl-5-(4-methylpiperazin-1-yl)-N-[(1R)-1-(3-methylsulfonylphenyl)ethyl] benzamide], the IC50 under setting [1] was below 20 µM.
Regarding `COc1ccc([C@@H](C)NC(=O)c2cc(N3CC4(CNC4)C3)ccc2C)cc1OC` [Example 37, 5-(2,6-Diazaspiro[3.3]heptan-2-yl)-N-[(1R)-1-(3,4-dimethoxyphenyl)ethyl]-2-methyl-benzamide], the IC50 under setting [1] was below 20 µM.
For `Cc1ccc(-c2cccc(CCN3CCOCC3)c2)cc1C(=O)N[C@H](C)c1cccc2ccccc12` [Example 141, 2-Methyl-5-[3-(2-morpholinoethyl)phenyl]-N-[(1R)-1-(1-naphthyl)ethyl]benzamide], under setting [1], the IC50 is above 100 µM.
`Cc1ccc(N2CCN(C)CC2)cc1C(=O)N[C@H](C)c1cccc(C(=O)N2CCN(C)CC2)c1` [Example 307, 2-Methyl-N-[(1R)-1-[3-(4-methylpiperazine-1-carbonyl)phenyl]ethyl]-5-(4-methylpiperazin-1-yl)benzamide]: the 50% inhibitory concentration (IC50) under setting [1] was below 2 µM.
Same read-out and setting: the result for `C[C@@H](NC(=O)c1cc(-c2ccc(CN3CCN(C)CC3)cc2)ccc1Cl)c1cccc2ccccc12` [Example 145] reads below 100 µM.
With `C[C@@H](NC(=O)c1cncc(N2CCN(C)CC2)n1)c1cccc2ccccc12` [Example 320, 6-(4-Methylpiperazin-1-yl)-N-[(1R)-1-(1-naphthyl)ethyl]pyrazine-2-carboxamide Hydrochloride Salt], under setting [1], the IC50 was below 100 µM.
With `Cc1ccc(-c2cccc(CCO)c2)cc1C(=O)N[C@H](C)c1cccc2ccccc12` [Example 142, 5-[3-(2-Hydroxyethyl)phenyl]-2-methyl-N-[(1R)-1-(1-naphthyl)ethyl]benzamide], the 50% inhibitory concentration (IC50) under setting [1] is above 100 µM.
With `Cc1ccc(N2CCN(C)CC2)cc1C(=O)N[C@H](C)c1cc(OCCO)cc(-c2cnn(C)c2)c1` [Example 281, N-[(1R)-1-[3-(2-Hydroxyethoxy)-5-(1-methylpyrazol-4-yl)phenyl]ethyl]-2-methyl-5-(4-methylpiperazin-1-yl)benzamide], the IC50 under setting [1] is below 2 µM.
Consider `C[C@@H](NC(=O)c1cccc(-c2ccnc(N3CCN(C)CC3)n2)c1)c1cccc2ccccc12` [Example 137, 3-[2-(4-Methylpiperazin-1-yl)pyrimidin-4-yl]-N-[(1R)-1-(1-naphthyl)ethyl]benzamide], for which, under setting [1], the IC50 was above 100 µM.
The same measure, in the same setting: the result for `Cc1ccc(N2CC[C@H](O)C2)cc1C(=O)N[C@H](C)c1cccc2ccccc12` [Example 119, 5-[(3S)-3-Hydroxypyrrolidin-1-yl]-2-methyl-N-[(1R)-1-(1-naphthyl)ethyl]benzamide] reads below 100 µM; that for `Cc1ccc(N2CCN(C)CC2)cc1C(=O)N[C@H](C)c1cccc(-c2cccc(C(=O)O)c2)c1` [Example 83, 3-[3-[(1R)-1-[[2-Methyl-5-(4-methylpiperazin-1-yl)benzoyl]amino]ethyl]phenyl]benzoic Acid], below 5 µM.
On the same count and under the same terms, the result for `Cc1ccc(N2CCN(CC(=O)O)CC2)cc1C(=O)N[C@H](C)c1cccc2ccccc12` [Example 171, 2-[4-[4-Methyl-3-[[(1R)-1-(1-naphthyl)ethyl]carbamoyl]phenyl]piperazin-1-yl]acetic Acid] reads below 2 µM.
As for `Cc1ccc(N2CCN(C)CC2)cc1C(=O)N[C@H](C)c1cc(Cl)cc(-c2cnn(C)c2)c1` [Example 257, N-[(1R)-1-[3-Chloro-5-(1-methylpyrazol-4-yl)phenyl]ethyl]-2-methyl-5-(4-methylpiperazin-1-yl)benzamide], the 50% inhibitory concentration (IC50) under setting [1] was below 2 µM.
Consider `C[C@@H](NC(=O)c1cc(C2=CCNC2)cn1C)c1cccc2ccccc12` [Example 149, 4-(2,5-Dihydro-1H-pyrrol-3-yl)-1-methyl-N-[(1R)-1-(1-naphthyl)ethyl]pyrrole-2-carboxamide Hydrochloride Salt], for which the concentration for half-maximal inhibition (IC50) under setting [1] is below 100 µM.
The same measure, in the same setting: under `Cc1ccc(N2CCN(C)CC2)cc1C(=O)N[C@H](C)c1cccs1` [Example 191, 2-Methyl-5-(4-methylpiperazin-1-yl)-N-[(1R)-1-(2-thienyl)ethyl]benzamide hydrochloride salt] stands below 100 µM.

The record behind these values is US20240383852A1, “ANTI-VIRAL COMPOUNDS” (INFEX Therapeutics Limited, priority 2021, published 2024).
